Assay: Solubility of etioporphyrin-I in chloroform
Type: physicochemical
Details: solvent chloroform
Procedure: In addition to the problems associated with the isolation of the dipyrromethenes, another difficulty in the syntheses of etioporphyrin I is the work up and purification procedures for isolating etioporphyrin-I. The coupling reaction of the dipyrromethenes (see Scheme 3, (5) and (6)) is carried out in refluxing formic acid. Generally, this gives a tarry, black reaction mixture that yield about 20-35% of etioporphyrin-I after extensive chromatography. On small scales (1-40 g of dipyrromethenes), dissolution of the tarry reaction mixture in chloroform, followed by neutralization and chromatography on large amounts of silica affords the desired porphyrin. […] During this process it is not uncommon for etioporphyrin-I to precipitate from solution onto the silica gel, making column chromatography (even on small scale (10 g)) difficult. Clearly, such a process is not feasible economically on large scale.

etioporphyrin-I
solubility in chloroform: < 10000 µg/mL

Source: patent publication US20230167124A1, “Methods for the Production of Nickel (II) Etioporphyrin-I” (Adgero Biopharmaceuticals Holdings, Inc., priority 2020, published 2023)
